{
  "source": "patent US6803380B1",
  "about": "“5-aryl-1h-1,2,4-triazole compounds as inhibitors of cyclooxygenase-2 and pharmaceutical compositions containing them” (Laboratoire Theramex, priority 1999, dated 2004)",
  "key": {"cyclooxygenase-2": {"target": "T1, cyclooxygenase-2 (Homo sapiens, UniProt P35354)", "T1 sequence (P35354 18-604)": "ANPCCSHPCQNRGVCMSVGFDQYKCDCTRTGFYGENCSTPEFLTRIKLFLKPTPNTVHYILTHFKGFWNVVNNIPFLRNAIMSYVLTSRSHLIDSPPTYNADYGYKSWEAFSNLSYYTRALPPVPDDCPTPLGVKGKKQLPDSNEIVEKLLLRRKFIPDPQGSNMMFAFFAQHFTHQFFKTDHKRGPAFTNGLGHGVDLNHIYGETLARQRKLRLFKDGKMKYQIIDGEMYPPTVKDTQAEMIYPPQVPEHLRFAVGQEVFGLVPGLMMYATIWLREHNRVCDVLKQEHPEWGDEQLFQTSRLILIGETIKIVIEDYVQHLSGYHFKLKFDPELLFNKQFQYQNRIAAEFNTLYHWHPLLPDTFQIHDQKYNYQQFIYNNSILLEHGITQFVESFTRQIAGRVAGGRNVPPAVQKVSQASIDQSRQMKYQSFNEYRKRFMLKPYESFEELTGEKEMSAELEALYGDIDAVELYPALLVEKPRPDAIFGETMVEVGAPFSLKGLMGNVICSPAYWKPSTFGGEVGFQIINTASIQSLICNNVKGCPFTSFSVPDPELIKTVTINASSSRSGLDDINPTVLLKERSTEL", "settings": "literature; cited from earlier work"}, "cyclooxygenase-1": {"target": "cyclooxygenase-1 (Homo sapiens, UniProt P23219)", "sequence (P23219 24-599, species assumed)": "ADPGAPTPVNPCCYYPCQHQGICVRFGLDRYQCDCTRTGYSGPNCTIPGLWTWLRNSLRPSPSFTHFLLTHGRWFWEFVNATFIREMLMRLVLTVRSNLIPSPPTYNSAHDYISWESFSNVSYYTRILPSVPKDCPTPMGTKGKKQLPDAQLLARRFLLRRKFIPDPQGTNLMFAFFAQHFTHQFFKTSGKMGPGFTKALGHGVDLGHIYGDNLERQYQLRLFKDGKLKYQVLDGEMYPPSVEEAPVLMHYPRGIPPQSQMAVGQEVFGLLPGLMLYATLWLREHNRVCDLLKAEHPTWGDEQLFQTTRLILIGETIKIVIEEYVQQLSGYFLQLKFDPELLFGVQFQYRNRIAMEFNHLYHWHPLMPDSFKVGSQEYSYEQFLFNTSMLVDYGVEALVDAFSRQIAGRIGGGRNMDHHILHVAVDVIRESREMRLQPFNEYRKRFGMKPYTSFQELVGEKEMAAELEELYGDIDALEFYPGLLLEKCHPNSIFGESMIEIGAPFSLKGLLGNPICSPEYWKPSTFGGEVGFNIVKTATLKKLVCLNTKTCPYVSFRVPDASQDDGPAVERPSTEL", "settings": "literature; cited from earlier work"}, "Cox-2 [1]": {"target": "T2, Cox-2 (Homo sapiens, UniProt P35354)", "T2 sequence (P35354 18-604)": "T1 sequence (P35354 18-604)", "settings": "literature; cited from earlier work"}, "COX-1": {"target": "T3, COX-1 (Ovis aries, UniProt P05979)", "T3 construct": "Purified COX-1 from ram seminal vesicles; purchased Cayman Chemicals; host or cells: ram seminal vesicles (tissue-purified)", "T3 sequence (P05979 25-600)": "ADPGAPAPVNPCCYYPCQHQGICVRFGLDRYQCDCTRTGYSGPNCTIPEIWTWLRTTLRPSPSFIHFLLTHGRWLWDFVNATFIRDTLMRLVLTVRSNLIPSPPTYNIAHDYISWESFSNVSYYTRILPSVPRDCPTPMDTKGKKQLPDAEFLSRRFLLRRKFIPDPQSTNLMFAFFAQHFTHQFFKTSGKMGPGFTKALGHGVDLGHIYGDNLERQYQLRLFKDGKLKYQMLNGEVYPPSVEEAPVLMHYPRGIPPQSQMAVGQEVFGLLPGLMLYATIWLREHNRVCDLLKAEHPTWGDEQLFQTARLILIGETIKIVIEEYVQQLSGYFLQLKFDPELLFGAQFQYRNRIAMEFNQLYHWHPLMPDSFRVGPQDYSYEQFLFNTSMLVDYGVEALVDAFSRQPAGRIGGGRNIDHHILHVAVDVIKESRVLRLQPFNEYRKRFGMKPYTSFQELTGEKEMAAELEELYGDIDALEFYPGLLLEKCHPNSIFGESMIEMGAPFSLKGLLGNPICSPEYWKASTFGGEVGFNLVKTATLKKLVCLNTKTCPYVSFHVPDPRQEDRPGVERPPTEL", "assay": "Inhibition of purified COX-1 activity in vitro (PGE2 by enzymo-immunoassay)", "type": "biochemical, ram", "settings": "concentration 1 μM; for % COX-1 inhibition: negative sign = inhibition", "description": "(§1) Example compounds according to the invention were tested for their ability to inhibit COX-1 and/or COX-2 activities in vitro. Purified COX-1 from ram seminal vesicles and purified COX-2 from ewe placenta (both from Cayman Chemicals) were incubated for 10 minutes at 25° C. in the presence of their substrate, arachidonic acid (5 μM), with or without test compounds or standard inhibitors. Prostaglandin E2, the reaction product, was measured by enzymo-immunoassay (R&D Systems). Each individual value results from duplicate determinations. Final inhibition data are means±standard errors of at least (3) independent experiments performed on as many different days."}, "COX-2 [2]": {"target": "T4, COX-2 (Ovis aries, UniProt P79208)", "T4 construct": "purified COX-2 from ewe placenta; purchased Cayman Chemicals; host or cells: ewe placenta (tissue-purified)", "T4 sequence (P79208 17-603)": "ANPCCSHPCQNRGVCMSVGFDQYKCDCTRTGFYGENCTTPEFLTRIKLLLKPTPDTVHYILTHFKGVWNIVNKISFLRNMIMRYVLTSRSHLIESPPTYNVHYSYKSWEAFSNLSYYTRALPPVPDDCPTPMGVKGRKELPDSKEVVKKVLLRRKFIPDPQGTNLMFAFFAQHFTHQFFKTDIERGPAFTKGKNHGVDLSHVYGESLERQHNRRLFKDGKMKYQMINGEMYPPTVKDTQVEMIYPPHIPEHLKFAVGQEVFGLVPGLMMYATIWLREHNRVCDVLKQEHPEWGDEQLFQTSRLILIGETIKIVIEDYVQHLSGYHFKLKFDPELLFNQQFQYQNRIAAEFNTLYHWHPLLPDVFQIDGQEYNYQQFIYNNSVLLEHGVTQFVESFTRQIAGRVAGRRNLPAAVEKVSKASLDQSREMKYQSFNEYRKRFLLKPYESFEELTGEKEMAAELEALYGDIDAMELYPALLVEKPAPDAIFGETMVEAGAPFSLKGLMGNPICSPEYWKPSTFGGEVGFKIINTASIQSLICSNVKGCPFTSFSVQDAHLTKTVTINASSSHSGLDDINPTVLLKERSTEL", "assay": "Inhibition of purified COX-2 activity in vitro (PGE2 by enzymo-immunoassay)", "type": "biochemical, ewe", "settings": "for selective inhibition of COX-2 (in words) / inhibition at 1 µM: concentration 1 μM; for inhibition at 1 µM: read-out: % COX-2 inhibition; for COX-2 inhibitory potency compared with nimesulide (in words): same concentration, 1 μM", "description": "as §1"}},
  "data": [
    {"smiles": "CS(=O)(=O)c1ccc(-c2nc(C#N)nn2-c2ccc(F)cc2)cc1", "note": "[compound (b)]", "values": [
      {"measurement": "inhibition of cyclooxygenase-2 (in words)", "setting": "cyclooxygenase-2", "result": "weak and non selective inhibitors"},
      {"measurement": "inhibition of cyclooxygenase-1 (in words)", "setting": "cyclooxygenase-1", "result": "weak and non selective inhibitors"}
    ]},
    {"smiles": "Fc1ccc(-c2nc(C(F)(F)F)nn2-c2ccc(Cl)cc2)cc1", "note": "[compound (a)]", "values": [
      {"measurement": "Cox-2 inhibitory activity (in words)", "setting": "Cox-2 [1]", "result": "moderate Cox-2 inhibitory activity"}
    ]},
    {"smiles": "COc1ccc(-n2nc(C(F)(F)F)nc2-c2ccc(S(C)(=O)=O)cc2)cc1", "note": "[Example 17, 1-(4-methoxy-phenyl)-5-(4-methylsulfonyl-phenyl)-3-trifluoromethyl-1H-1,2,4-triazole]", "values": [
      {"measurement": "melting point", "result": 156, "unit": "°C"},
      {"measurement": "inhibition of COX-1 (in words)", "setting": "COX-1", "result": "did not show any significant inhibition of COX-1"},
      {"measurement": "% COX-1 inhibition", "setting": "COX-1", "result": "+8 ± 2.7%"},
      {"measurement": "selective inhibition of COX-2 (in words)", "setting": "COX-2 [2]", "result": "able to inhibit COX-2 selectively"},
      {"measurement": "inhibition at 1 µM", "setting": "COX-2 [2]", "result": "44 ± 6.8", "unit": "%"},
      {"measurement": "COX-2 inhibitory potency compared with nimesulide (in words)", "setting": "COX-2 [2]", "result": "even more potent"}
    ]},
    {"smiles": "CS(=O)(=O)c1ccc(-c2nc(C(F)(F)F)nn2-c2ccc(Br)cc2)cc1", "note": "[Example 18, 1-(4-bromo-phenyl)-5-(4-methylsulfonyl-phenyl)-3-trifluoromethyl-1H-1,2,4-triazole]", "values": [
      {"measurement": "melting point", "result": 198, "unit": "°C"},
      {"measurement": "inhibition of COX-1 (in words)", "setting": "COX-1", "result": "did not show any significant inhibition of COX-1"},
      {"measurement": "% COX-1 inhibition", "setting": "COX-1", "result": "−5 ± 12", "unit": "%"},
      {"measurement": "selective inhibition of COX-2 (in words)", "setting": "COX-2 [2]", "result": "able to inhibit COX-2 selectively"},
      {"measurement": "inhibition at 1 µM", "setting": "COX-2 [2]", "result": 53, "unit": "%"},
      {"measurement": "COX-2 inhibitory potency compared with nimesulide (in words)", "setting": "COX-2 [2]", "result": "even more potent"},
      {"measurement": "COX-2 potency relative to nimesulide", "setting": "COX-2 [2]; same inhibition at 1 μM vs. 10 μM nimesulide", "result": "about 10 times"}
    ]}
  ]
}
